Like-named read-outs stand apart in the source and are kept apart here.
Tests used:
[1] = system: ABUTH; experiment: Greenhouse herbicidal effectiveness, ABUTH; format: in vivo, velvetleaf; details: for inhibition at 75 g/ha / inhibition at 100 g/ha / inhibition at 150 g/ha / inhibition at 200 g/ha: Abutilon theophrasti, 408 h, 17 days after treatment; for inhibition at 75 g/ha: 75 g a.e./ha; for inhibition at 150 g/ha: 150 g a.e./ha; for efficacy ABUTH: Table 19A, 16 days after treatment; for % inhibition ABUTH (14 DAT) / % inhibition ABUTH (20 DAT): oxalate/oxalic acid alone, Table 44A
From the text: (§1) The following greenhouse testing procedure was used for evaluating compositions of the Examples to determine herbicidal effectiveness, except where otherwise indicated.
(§2) Seeds of the plant species indicated were planted in 88 mm square pots in a soil mix which was previously sterilized and prefertilized with a 14-14-14 NPK slow release fertilizer at a rate of 3.6 kg/m3. The pots were placed in a greenhouse with sub-irrigation. About one week after emergence, seedlings were thinned as needed, including removal of any unhealthy or abnormal plants, to create a uniform series of test pots.
(§3) The plants were maintained for the duration of the test in the greenhouse where they received a minimum of 14 hours of light per day. […] Exposure temperatures were not precisely controlled but averaged about 29° C. during the day and about 21° C. during the night. Plants were sub-irrigated throughout the test to ensure adequate soil moisture levels.
(§4) Pots were assigned to different treatments in a fully randomized experimental design with 6 replications. A set of pots was left untreated as a reference against which affects of the treatments could later be evaluated.
(§5) Application of glyphosate compositions was made by spraying with a track sprayer fitted with a 9501E nozzle calibrated to deliver a spray volume of 93 liters per hectare (l/ha) at a pressure of 165 kilopascals (kPa). After treatment, pots were returned to the greenhouse until ready for evaluation.
(§6) Treatments were made using dilute aqueous compositions. These could be prepared as spray compositions directly from their ingredients, or by dilution with water of preformulated concentrate compositions.
(§7) For evaluation of herbicidal effectiveness, all plants in the test were examined by a single practiced technician, who recorded percent control, a visual measurement of the effectiveness of each treatment by comparison with untreated plants. […] The reported % control values represent the average for all replicates of each treatment.

[2] = system: ECHCF; experiment: Greenhouse herbicidal effectiveness, ECHCF; format: in vivo, Japanese millet, barnyardgrass; details: for inhibition at 75 g/ha / inhibition at 100 g/ha / inhibition at 150 g/ha / inhibition at 200 g/ha: 408 h, 17 days after treatment; for inhibition at 75 g/ha: 75 g a.e./ha; for inhibition at 150 g/ha: 150 g a.e./ha; for efficacy ECHCF: Table 19A, 16 days after treatment
From the text: as §1, §2, §3, §4, §5, §6, §7

[3] = system: TRZVX; experiment: Greenhouse herbicidal effectiveness, TRZVX; format: in vivo, wheat; details: Table 19A, 16 days after treatment
From the text: as §1, §2, §3, §4, §5, §6, §7

[4] = read-out: % inhibition ABUTH, Table 19B, OTH1 1 % v/v
[5] = read-out: % inhibition ABUTH, Table 19B, no OTH22, no OTH1
[6] = read-out: % inhibition ABUTH, Table 19B, 100 g a.e./ha, OTH1 1 % v/v
[7] = read-out: % inhibition ABUTH, Table 19B, 100 g a.e./ha, no OTH22, no OTH1
[8] = read-out: % inhibition ABUTH, Table 19B, 200 g a.e./ha, OTH1 1 % v/v
[9] = read-out: % inhibition ABUTH, Table 19B, 200 g a.e./ha, no OTH22, no OTH1
[10] = read-out: % inhibition ECHCF, Table 19B, OTH1 1 % v/v
[11] = read-out: % inhibition ECHCF, Table 19B, no OTH22, no OTH1
[12] = read-out: % inhibition ECHCF, Table 19B, 100 g a.e./ha, OTH1 1 % v/v
[13] = read-out: % inhibition ECHCF, Table 19B, 100 g a.e./ha, no OTH22, no OTH1
[14] = read-out: % inhibition ECHCF, Table 19B, 200 g a.e./ha, OTH1 1 % v/v
[15] = read-out: % inhibition ECHCF, Table 19B, 200 g a.e./ha, no OTH22, no OTH1
[16] = 30 g a.e./ha, tank mix OTH1 1 % v/v
[17] = 70 g a.e./ha, tank mix OTH1 1 % v/v
[18] = 100 g a.e./ha, tank mix OTH1 1 % v/v
[19] = 200 g a.e./ha, tank mix OTH1 1 % v/v
[20] = Table 19B, OTH1 1 % v/v, read-out: % inhibition ABUTH
[21] = Table 19B, no OTH22, no OTH1, read-out: % inhibition ABUTH
[22] = Table 19B, OTH1 1 % v/v, read-out: % inhibition ECHCF
[23] = Table 19B, no OTH22, no OTH1, read-out: % inhibition ECHCF

CN(C)C(=O)Nc1ccc(Cl)c(Cl)c1 [diuron]
inhibition at 75 g/ha [1, 4]: 0%
inhibition at 75 g/ha [1, 5]: 0%
inhibition at 100 g/ha [1, 6]: 0%
inhibition at 100 g/ha [1, 7]: 0%
inhibition at 150 g/ha [1, 4]: 2%
inhibition at 150 g/ha [1, 5]: 5%
inhibition at 200 g/ha [1, 8]: 10%
inhibition at 200 g/ha [1, 9]: 17%
inhibition at 75 g/ha [2, 10]: 0%
inhibition at 75 g/ha [2, 11]: 0%
inhibition at 100 g/ha [2, 12]: 0%
inhibition at 100 g/ha [2, 13]: 0%
inhibition at 150 g/ha [2, 10]: 0%
inhibition at 150 g/ha [2, 11]: 0%
inhibition at 200 g/ha [2, 14]: 0%
inhibition at 200 g/ha [2, 15]: 0%

CCc1cnc(C2=NC(C)(C(C)C)C(=O)N2)c(C(=O)O)c1 (centres unmarked) [imazethapyr]
efficacy ABUTH ([1]; 30 g a.e./ha, no OTH1): 73
efficacy ABUTH [1, 16]: 72
efficacy ABUTH ([1]; 70 g a.e./ha, no OTH1): 80
efficacy ABUTH [1, 17]: 81
efficacy ABUTH ([1]; 100 g a.e./ha, no OTH1): 82
efficacy ABUTH [1, 18]: 85
efficacy ABUTH ([1]; 200 g a.e./ha, no OTH1): 85
efficacy ABUTH [1, 19]: 89
efficacy ECHCF ([2]; 30 g a.e./ha, no OTH1): 68
efficacy ECHCF [2, 16]: 66
efficacy ECHCF ([2]; 70 g a.e./ha, no OTH1): 72
efficacy ECHCF [2, 17]: 71
efficacy ECHCF ([2]; 100 g a.e./ha, no OTH1): 75
efficacy ECHCF [2, 18]: 74
efficacy ECHCF ([2]; 200 g a.e./ha, no OTH1): 87
efficacy ECHCF [2, 19]: 80
efficacy TRZVX ([3]; 30 g a.e./ha, no OTH1): 14
efficacy TRZVX [3, 16]: 25
efficacy TRZVX ([3]; 70 g a.e./ha, no OTH1): 41
efficacy TRZVX [3, 17]: 33
efficacy TRZVX ([3]; 100 g a.e./ha, no OTH1): 52
efficacy TRZVX [3, 18]: 50
efficacy TRZVX ([3]; 200 g a.e./ha, no OTH1): 73
efficacy TRZVX [3, 19]: 67

C[C@@H](Oc1ccc(Oc2ccc(C(F)(F)F)cn2)cc1)C(=O)O [fluazifop-p]
efficacy ABUTH ([1]; 30 g a.e./ha, no OTH1): 0, 0, 0, 0
efficacy ABUTH [1, 16]: 0, 0, 0, 0
efficacy ABUTH ([1]; 70 g a.e./ha, no OTH1): 0, 0, 0, 0
efficacy ABUTH [1, 17]: 0, 0, 0, 0
efficacy ABUTH ([1]; 100 g a.e./ha, no OTH1): 0, 0, 0, 0
efficacy ABUTH [1, 18]: 0, 0, 0, 0
efficacy ABUTH ([1]; 200 g a.e./ha, no OTH1): 0, 0, 0, 0
efficacy ABUTH [1, 19]: 0, 0, 0, 0
efficacy ECHCF ([2]; 30 g a.e./ha, no OTH1): 98
efficacy ECHCF [2, 16]: 97
efficacy ECHCF ([2]; 70 g a.e./ha, no OTH1): 100
efficacy ECHCF [2, 17]: 100
efficacy ECHCF ([2]; 100 g a.e./ha, no OTH1): 100
efficacy ECHCF [2, 18]: 100
efficacy ECHCF ([2]; 200 g a.e./ha, no OTH1): 100
efficacy ECHCF [2, 19]: 100
efficacy TRZVX ([3]; 30 g a.e./ha, no OTH1): 70
efficacy TRZVX [3, 16]: 73
efficacy TRZVX ([3]; 70 g a.e./ha, no OTH1): 85
efficacy TRZVX [3, 17]: 83
efficacy TRZVX ([3]; 100 g a.e./ha, no OTH1): 91
efficacy TRZVX [3, 18]: 93
efficacy TRZVX ([3]; 200 g a.e./ha, no OTH1): 97
efficacy TRZVX [3, 19]: 98

CCOc1cc(Oc2ccc(C(F)(F)F)cc2Cl)ccc1[N+](=O)[O-] [oxyfluorfen]
inhibition at 75 g/ha [1, 20]: 80%
inhibition at 75 g/ha [1, 21]: 81%
inhibition at 100 g/ha ([1]; Table 19B, 100 g a.e./ha, OTH1 1 % v/v, read-out: % inhibition ABUTH): 82%
inhibition at 100 g/ha ([1]; Table 19B, 100 g a.e./ha, no OTH22, no OTH1, read-out: % inhibition ABUTH): 82%
inhibition at 150 g/ha [1, 20]: 87%
inhibition at 150 g/ha [1, 21]: 84%
inhibition at 200 g/ha ([1]; Table 19B, 200 g a.e./ha, OTH1 1 % v/v, read-out: % inhibition ABUTH): 92%
inhibition at 200 g/ha ([1]; Table 19B, 200 g a.e./ha, no OTH22, no OTH1, read-out: % inhibition ABUTH): 91%
inhibition at 75 g/ha [2, 22]: 0%
inhibition at 75 g/ha [2, 23]: 0%
inhibition at 100 g/ha ([2]; Table 19B, 100 g a.e./ha, OTH1 1 % v/v, read-out: % inhibition ECHCF): 0%
inhibition at 100 g/ha ([2]; Table 19B, 100 g a.e./ha, no OTH22, no OTH1, read-out: % inhibition ECHCF): 0%
inhibition at 150 g/ha [2, 22]: 0%
inhibition at 150 g/ha [2, 23]: 0%
inhibition at 200 g/ha ([2]; Table 19B, 200 g a.e./ha, OTH1 1 % v/v, read-out: % inhibition ECHCF): 2%
inhibition at 200 g/ha ([2]; Table 19B, 200 g a.e./ha, no OTH22, no OTH1, read-out: % inhibition ECHCF): 3%

N.N.O=C(O)C(=O)O [OTH1]
% inhibition ABUTH (14 DAT) ([1]; 2 g a.e./ha): 0, 0, 0, 0%
% inhibition ABUTH (20 DAT) ([1]; 2 g a.e./ha): 0, 0, 0, 0%
% inhibition ABUTH (14 DAT) ([1]; 3 g a.e./ha): 0, 0, 0, 0%
% inhibition ABUTH (20 DAT) ([1]; 3 g a.e./ha): 0, 0, 0, 0%
% inhibition ABUTH (14 DAT) ([1]; 4 g a.e./ha): 0, 0, 0, 0%
% inhibition ABUTH (20 DAT) ([1]; 4 g a.e./ha): 0, 0, 0, 0%
% inhibition ABUTH (14 DAT) ([1]; 5 g a.e./ha): 0, 0, 0, 0%
% inhibition ABUTH (20 DAT) ([1]; 5 g a.e./ha): 0, 0, 0, 0%

CP(=O)(O)CCC(N)C(=O)O (centres unmarked) [glufosinate]
inhibition at 75 g/ha [1, 4]: 68%
inhibition at 75 g/ha [1, 5]: 22%
inhibition at 100 g/ha [1, 6]: 82%
inhibition at 100 g/ha [1, 7]: 43%
inhibition at 150 g/ha [1, 4]: 90%
inhibition at 150 g/ha [1, 5]: 74%
inhibition at 200 g/ha [1, 8]: 98%
inhibition at 200 g/ha [1, 9]: 89%
inhibition at 75 g/ha [2, 10]: 95%
inhibition at 75 g/ha [2, 11]: 94%
inhibition at 100 g/ha [2, 12]: 96%
inhibition at 100 g/ha [2, 13]: 95%
inhibition at 150 g/ha [2, 10]: 99%
inhibition at 150 g/ha [2, 11]: 98%
inhibition at 200 g/ha [2, 14]: 100%
inhibition at 200 g/ha [2, 15]: 99%

Reference: patent US7883715B2, “Pesticide compositions containing dicarboxylic acids” (Monsanto Technology LLC, priority 2002, dated 2011)
